The values below come from US9186361B2, “Compounds and compositions for the treatment of parasitic diseases” (Novartis AG, priority 2013, dated 2015).

pEC50: −log10 of the molar value.

The test system of series [1] is Leishmania donovani axenic amastigote parasites. Briefly: Assay for Leishmania proliferation in vitro (axenic amastigotes, Cell TiterGlo). As to conditions: 48 h, 2 day incubation, read-out: L. donovani amastigotes EC50. It counts as cell-based. An outline of the steps: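 L. donovani axenic amastigotes (9600 per well) are cultured with compound for 2 days at 37° C, 5% CO2 in RPMI-based medium at pH 5.5. Viability is read by CellTiterGlo luminescence, and EC50 is calculated.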

For series [2], the system named is L. donovani HU3 strain in mouse peritoneal macrophages. Briefly: Proliferation of L. donovani in mouse peritoneal macrophages (SybrGreen, high-content imaging). It counts as cell-based. As to conditions: Leishmania donovani, Peritoneal macrophage, 120 h; infected mouse peritoneal macrophages, 5 days; read-out: L. donavani Macrophage EC50. An outline of the steps:
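Peritoneal macrophages from uninfected BALB/c mice were infected for 24 h with spleen-derived amastigotes (9-11 week infected mice), then exposed to compound for 5 days at 37° C. Fixed cells stained with SybrGreen and parasite nuclei counted by high-content imaging; EC50 calculated from inhibition.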

In series [3] the test system is Trypanosoma cruzi amastigotes cultured in 3T3 fibroblast cells. Briefly: Assay for proliferation of kinetoplastid parasite Trypanosoma cruzi (beta-galactosidase/CPRG readout). The series is classed as cell-based. Particulars: NIH3T3, 144 h, Tulahuen strain in 3T3 cells, 6 day incubation, read-out: T cruzi EC50.
In series [4] the test system is Trypanosoma brucei Lister 427 strain. Briefly: Assay for proliferation of kinetoplastid parasite Trypanosoma brucei (Cell Titer Glo). The series is classed as cell-based. Particulars: bloodstream form, 48 hours, read-out: T. brucei EC50. The source says:
The proliferation is quantified by the addition of Cell Titer Glo (Promega®) a luminescent cell viability assay that measures the number of viable cells in culture based on the quantification of cellular ATP amount, which is an indicator of metabolically active cells. The following assay illustrates the invention without in any way limiting the scope of the invention. This parasite proliferation assay measures the increase in parasite growth using an assay that measures ATP activity, Cell Titer Glo®.
Trypanosoma brucei Lister 427 strain is grown in HMI-9 Trypanosome media for T. brucei bloodstream form. 30 μl of HMI-9 media is dispensed into 384 well assay plates. 200 nL of compounds of the invention (in DMSO), including anti-trypanosome controls (Pentamidine and suramin), are then transferred into the assay plates, as well as DMSO alone to serve as a negative control for inhibition. Then 25 μl of a suspension of T. brucei culture in HMI-9 media is dispensed into the assay plates. The final concentration of parasites in culture corresponds to 1.7% of 0.5 uM ATP activity with Cell Titer Glo® in HMI-9 media. The plates are placed in a 37° C. incubator for 48 hours in an atmospheric environment containing 5% CO2. 40 μl of Cell Titer Glo® is dispensed into the plates. The plates are then read for luminescence. The percentage inhibition of 50%, EC50, is calculated for each compound.
On the technique in general: In ATP-based viability assays light output follows the ATP content of the culture.

The conditions of series [5]: cited from earlier work.

Regarding `CC1(C)CC(C(=O)Nc2cnc3nc(-c4cc(NC(=O)c5ccco5)ccc4Cl)[nH]c3c2)C1` [Example 56, N-(4-chloro-3-{6-[(3,3-dimethylcyclobutane)amido]-1H-imidazo[4,5-b]pyridin-2-yl}phenyl)furan-2-carboxamide], the negative-log EC50 (pEC50) in series [1] was 5.53; in series [2], 5.65; in series [3], 5.91; in series [4], 6.46.
For the molecule `O=C(Nc1ccc(Cl)c(-c2nc3ncc(NC(=O)C4CC(F)(F)C4)cc3[nH]2)c1)c1ccco1` [Example 57, N-(4-chloro-3-{6-[(3,3-difluorocyclobutane)amido]-1H-imidazo[4,5-b]pyridin-2-yl}phenyl)furan-2-carboxamide], the pEC50 in series [1] was 5.09; in series [2] it was 4.89; in series [3] it was 5.13; in series [4] it was 6.30.
For `CC(C)(C)OC(=O)NCC1(C(=O)Nc2cnc3nc(-c4cc(NC(=O)c5ccco5)ccc4Cl)[nH]c3c2)CC1` [Example 63, tert-butyl N-{[1-({2-[2-chloro-5-(furan-2-amido)phenyl]-1H-imidazo[4,5-b]pyridin-6-yl}carbamoyl)cyclopropyl]methyl}carbamate], in that order: 6.34, 6.28, 6.61 and 7.36.
For `O=C(Nc1ccc(Cl)c(-c2nc3ncc(NC(=O)C4CC4)cc3[nH]2)c1)c1ccc(F)o1` [Example 65, N-(4-chloro-3-{6-cyclopropaneamido-1H-imidazo[4,5-b]pyridin-2-yl}phenyl)-5-fluorofuran-2-carboxamide], in that order: 5.83, 6.24, 5.99 and 7.64.
For `O=C(CCCN1CCOCC1)Nc1cnc2nc(-c3cc(NC(=O)c4ccc(F)o4)ccc3Cl)[nH]c2c1` [Example 66, N-(4-chloro-3-{6-[4-(morpholin-4-yl)butanamido]-1H-imidazo[4,5-b]pyridin-2-yl}phenyl)-5-fluorofuran-2-carboxamide], in that order: below 4.60, 4.41, below 4.70 and 5.64.
Take `CC(C)(C)OC(=O)NCCC(=O)Nc1cnc2nc(-c3cc(NC(=O)c4ccc(F)o4)ccc3Cl)[nH]c2c1` [Example 68, tert-butyl N-[2-({2-[2-chloro-5-(5-fluorofuran-2-amido)phenyl]-1H-imidazo[4,5-b]pyridin-6-yl}carbamoyl)ethyl]carbamate]: the pEC50 in series [1] is 5.21; in series [2], 5.15; in series [3] it was 5.12; in series [4] it was 6.39.
Taken in the same sequence, the figures for `N#CC1(C(=O)Nc2cnc3nc(-c4cc(NC(=O)c5ccc(F)o5)ccc4Cl)[nH]c3c2)CC1` [Example 70, N-(4-chloro-3-{6-[(1-cyanocyclopropane)amido]-1H-imidazo[4,5-b]pyridin-2-yl}phenyl)-5-fluorofuran-2-carboxamide] were 5.92, 6.28, 6.14 and 7.49.
Consider `O=C(Nc1ccc(Cl)c(-c2nc3ncc(NC(=O)C4(C(F)(F)F)CCC4)cc3[nH]2)c1)c1ccc(F)o1` [Example 71, N-[4-chloro-3-(6-{[1-(trifluoromethyl)cyclobutane]amido}-1H-imidazo[4,5-b]pyridin-2-yl)phenyl]-5-fluorofuran-2-carboxamide], for which the pEC50 was 5.85 in series [1], 6.58 in series [2], 6.82 in series [3] and 7.52 in series [4].
For the molecule `O=C(CCN1CCOCC1)Nc1cnc2nc(-c3cc(NC(=O)c4ccc(F)o4)ccc3Cl)[nH]c2c1` [Example 72, N-(4-chloro-3-{6-[3-(morpholin-4-yl)propanamido]-1H-imidazo[4,5-b]pyridin-2-yl}phenyl)-5-fluorofuran-2-carboxamide], the pEC50 in series [1] is below 4.60; in series [2], 4.47; in series [3] it was below 4.70; in series [4] it was 5.27.
In the case of `CC(C)OC(=O)Nc1cnc2nc(-c3cccc(NC(=O)c4ccc(F)o4)c3)[nH]c2c1` [Example 78, propan-2-yl N-{2-[3-(5-fluorofuran-2-amido)phenyl]-1H-imidazo[4,5-b]pyridin-6-yl}carbamate], the negative logarithm of the EC50 (pEC50) in series [1] was 5.33; in series [2], 5.86; in series [3], 5.84; in series [4], 6.70.
For the molecule `Nc1nc(N)nc(Nc2ccc([As]3SCC(CO)S3)cc2)n1` (stereo not drawn) [Melarsoprol], the “reactive encephalopathy cases that result in death” value in series [5] (of the encephalopathy cases) is 10-70%. Moreover, the “patients who developed reactive encephalopathy” value in series [5] (patients injected with the drug) is 3-10%.

For orientation: pEC50 means the negative decadic logarithm of the EC50, by convention in mol/L.
